Biological target: T1, 17β-HSD10 (Homo sapiens, UniProt Q99714)
T1 construct: Histev (histidine tag with TEV site) (N, cleaved yes); made in house; host or cells: E. coli BL21-CodonPlus
T1 sequence (Q99714 1-261): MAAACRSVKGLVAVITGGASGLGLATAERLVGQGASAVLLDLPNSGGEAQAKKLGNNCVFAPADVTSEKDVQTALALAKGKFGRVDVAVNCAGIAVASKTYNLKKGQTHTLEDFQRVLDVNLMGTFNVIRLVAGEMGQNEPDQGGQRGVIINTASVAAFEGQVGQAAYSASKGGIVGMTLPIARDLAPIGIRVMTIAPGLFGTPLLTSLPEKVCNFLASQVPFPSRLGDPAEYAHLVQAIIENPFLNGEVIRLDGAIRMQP
Test: 17β-HSD10 (ABAD) enzyme inhibition assay, NADH oxidation read at 340 nm (primary screen and dose response)
Type: biochemical
Settings: for EC50 / Max. Effect (%) / Hill Slope / Max. Fit / Min. Fit: recombinant 17βHSD10 enzyme assay; for Hill Slope / Max. Fit / Min. Fit: curve fit; for ABAD plC50: primary screening, resynthesized HTS hit compounds
Method: Cell pellets of E. coli BL21-CodonPlus cells containing Histev-17β-HSD10 protein were re-suspended for 30 min, 4° C., in lysis buffer (20 mM NaH2PO4, 30 mM imidazole, 500 mM NaCl, 10% (v/v) glycerol, pH 7.5) with the addition of complete ethylenediaminetetraacetic acid (EDTA)-free protease inhibitor tablets (Roche), lysozyme (1 mg/mL), deoxyribonuclease (DNase) (20 μg/mL) and Triton X-100 (0.1% (v/v)). Cells were lysed by passage through a cell disruptor at 30 kPSI (Constant Systems Ltd) and the lysate was cleared by centrifugation (Sorvall Evolution RC, rotor S5-34 55-34 angle, 20500 rpm, 30 min, 4° C.). Cleared lysate was filtered (0.45 μm membrane; Whatman) then applied to a Ni-nitrilotriacetic acid (NTA) (GE Healthcare) column pre-washed with lysis buffer and protein eluted with 300 mM imidazole buffer (20 mM NaH2PO4, 300 mM imidazole, 500 mM NaCl, 10% (v/v) glycerol, pH 7.5). […] Protein digestion and dialysis was carried out at 4° C. for 16 h.
Complete digestion was firstly checked by sodium dodecyl sulfate-polyacrylamide gel electrophoresis (SDS-PAGE), then fully digested protein was passed over a second Ni-column and the flow-through, containing 17β-HSD10 protein, was concentrated using a Vivaspin column (10 kDa MWCO, GE Healthcare) to ˜7 mL before final purification using gel filtration to remove imidazole (Hi-Load 16/60 Superdex 75 prep grade column, GE Healthcare, flow rate 1.5 mL/min). Protein was eluted in gel filtration buffer (10 mM trisaminomethane (Tris-HCl), 150 mM NaCl, 10% glycerol, pH 7.5) and concentrated (Vivaspin column (10 kDa molecular weight cut off (MWCO), GE Healthcare)) to 10 mg/mL. Aliquots (10 μL) were taken and flash frozen in liquid nitrogen before final storage at −80° C.
The assay buffer used contains: 10 mM Tris. HCl (pH 7.4), 150 mM NaCl, 1 mM DTT, 0.005% Tween (polysorbate 20) and 0.01% bovine serum albumin (BSA). As indicated for some experiments the assay buffer was supplemented with 100 units/ml bovine liver catalase. All experiments were conducted in clear bottom 384-well or 1536-well low volume microplates (Corning) with a final assay volume of 20 μL and the reaction progress was monitored by oxidation of NADH as determined by reduction in absorbance at 340 nm read on the EnVision plate reader (PerkinElmer).
For primary screening an endpoint assay format was adopted in which an Echo acoustic liquid dispenser (Labcyte) was used to transfer 20 nL of either reference standard, dimethylsulfoxide (DMSO) control ([…] final assay concentration (FAC)) or test compounds (10 μM FAC) to the assay plate. 10 μL of 17β-HSD10 enzyme in assay buffer (2.5 nM, FAC) was then added to the plates using the Preddator liquid handling robot (Redd and Whyte) and plates were incubated at room temperature for 15 minutes. 10 μL of substrate mixture (100 μM acetoacetyl-CoA and 100 μM NADH, FAC) was added with the Preddator. To start the reaction and the plates were left to incubate for 35 minutes at room temperature before the absorbance at 340 nm was read on the EnVision plate reader (PerkinElmer). For kinetic assay format and dose response follow up experiments the same protocol was adopted but the absorbance at 340 nm was monitored constantly for 45 minutes from immediately after the reaction was started.

Structure (SMILES) | EC50 | Max. Effect (%) | Hill Slope | Max. Fit | Min. Fit | 17β-HSD10 / ABAD activity in words (SAR discussion) | ABAD plC50
CCCn1c(C(N)=O)cc2cc(-c3cn[nH]c3)ccc21 [ESC1002019] | 3.98 µM | 85% | 1.3 | 93 | 2 | – | –
CCOc1cccc(-c2ccccc2[C@@H]2CCCN2C(=O)c2sccc2Cl)c1 (racemic) [ESC1002664] | 0.417 µM | 92% | 1.2 | 92 | 0 | – | –
O=C(c1[nH]ncc1Cl)N1CCC[C@H]1c1ccccn1 [S1−T17, 2-[(2S)-1-[(4-chloro-1H-pyrazol-5-yl)carbonyl]pyrrolidin-2-yl]pyridine] | > 20 µM | 17.5% | – | – | – | – | –
COc1cccc(-c2ccccc2[C@H]2CCCN2C(=O)C2CCOCC2)c1 [ESC1002435] | > 20 µM | 12% | – | – | – | – | –
CC(C)N(C(=O)c1ccccc1F)c1cccc(N(C)Cc2cnc[nH]2)c1 [ESC1002078, 2-fluoro-N-[3-[1H-imidazol-5-ylmethyl(methyl)amino]phenyl]-N-isopropyl-benzamide] | 0.631 µM | 97% | 1 | 101 | −1 | – | –
COc1cccc(-c2ccccc2[C@@H]2CCCN2C(=O)c2ncc[nH]2)c1 (racemic) [ESC1002600] | 4.37 µM | 75% | 1.2 | 86 | 1 | – | –
CC(=O)CN(CC(C)=O)c1cccc(N(CC(C)C)C(=O)c2ccccc2F)c1 [ESC1002724] | > 20 µM | −3% | – | – | – | – | –
O=C(c1sccc1Cl)N1CCC[C@H]1c1ccccc1-c1cncnc1 (racemic) [ESC1002698] | 7.41 µM | 59% | 1.1 | 71 | 1 | – | –
O=C(c1sccc1Cl)N1CCC[C@H]1c1ccccc1-c1ccc(O)cc1 (racemic) [ESC1002696] | 0.302 µM | 97% | 1.2 | 97 | 1 | – | –
CC(C)CN(C(=O)c1ccccc1F)c1cccc(N(C)Cc2cn[nH]c2I)c1 [ESC1002687] | 11 µM | 64% | 1 | 100 | −6 | – | –
CC(C)CN(C(=O)c1ccccc1F)c1cccc(NCc2c[nH]cn2)c1 [ESC1002631] | 9.33 µM | 64% | 0.94 | 100 | −6 | – | –
Cc1ccsc1C(=O)N1CCC[C@@H]1c1ccccc1-c1c[nH]nc1C [ESC1002464] | 2.04 µM | 84% | 1.1 | 91 | −5 | – | –
Cc1ccc(C(=O)N(CC(C)C)c2cccc(N(C)Cc3cnc[nH]3)c2)cc1 [ESC1002032, N-[3-[1H-imidazol-5-ylmethyl(methyl)amino]phenyl]-N-isobutyl-4-methyl-benzamide] | 0.251 µM | 99% | 0.9 | 99 | 0 | – | 6.6
COc1cccc(-c2ccccc2[C@@H]2CCCN2C(=O)c2[nH]ncc2Cl)c1 (single isomer, unassigned) [ESC1002756] | > 20 µM | 24% | – | – | – | – | –
CC(C)CN(C(=O)c1ccccc1F)c1cccc(-n2ccnc2)c1 [ESC1002765] | > 20 µM | −2% | – | – | – | – | –
CN(Cc1c[nH]cn1)c1cccc(N(CC(C)(C)C)C(=O)c2ccccc2F)c1 [ESC1002517, N-(2,2-dimethylpropyl)-2-fluoro-N-[3-[1H-imidazol-4-ylmethyl(methyl)amino]phenyl]benzamide] | 2 µM | 92% | 0.87 | 106 | −1 | – | –
CC(C)CN(C(=O)c1ccc[nH]c1=O)c1cccc(N(C)Cc2c[nH]cn2)c1 [ESC1002614, N-[3-[1H-imidazol-4-ylmethyl(methyl)amino]phenyl]-N-isobutyl-2-oxo-1H-pyridine-3-carboxamide] | > 20 µM | 30% | – | – | – | – | –
CC(C)CN(C(=O)c1ccccc1F)c1cccc(N(C)Cc2c[nH]nn2)c1 [ESC1002675] | 4.47 µM | 75% | 1.2 | 87 | −2 | – | –
COc1cccc(C(=O)N(CC(C)C)c2cccc(N(C)Cc3cnc[nH]3)c2)c1 [ESC1002038, N-[3-[1H-imidazol-5-ylmethyl(methyl)amino]phenyl]-N-isobutyl-3-methoxy-benzamide] | 2 µM | 92% | 0.8 | 105 | −2 | – | 5.7
Cc1ccc(C(=O)N(CC(C)C)c2nccc(N(C)Cc3cnc[nH]3)n2)cc1 [ESC1002817] | > 20 µM | 4% | – | – | – | – | –
COc1cccc(-c2ccccc2[C@H]2CCCN2C(=O)c2sccc2OC)c1 [ESC1002433] | > 20 µM | 17% | – | – | – | – | –

Now from value to molecule, other results behind:

EC50 | Max. Effect (%) | Hill Slope | Max. Fit | Min. Fit | 17β-HSD10 / ABAD activity in words (SAR discussion) | Structure (SMILES) | ABAD plC50
1.2 µM | 90% | 1 | 95 | −5 | – | CC(C)CN(C(=O)c1ccc(Cl)s1)c1cccc(N(C)Cc2c[nH]cn2)c1 [ESC1002460, 5-chloro-N-[3-[1H-imidazol-4-ylmethyl(methyl)amino]phenyl]-N-isobutyl-thiophene-2-carboxamide] | –
1.17 µM | 96% | 1 | 102 | 2 | – | Cc1ccccc1C(=O)N(CC(C)C)c1cccc(N(C)Cc2c[nH]cn2)c1 [ESC1002491, N-[3-[1H-imidazol-4-ylmethyl(methyl)amino]phenyl]-N-isobutyl-2-methyl-benzamide] | –
> 20 µM | 4% | – | – | – | – | CN(Cc1cnc[nH]1)c1cccc(NC(=O)c2ccccc2F)c1 [ESC1002056, 2-fluoro-N-[3-[1H-imidazol-5-ylmethyl(methyl)amino]phenyl]benzamide] | –
> 20 µM | 4% | – | – | – | – | COc1cccc(-c2ccccc2[C@H]2CCCN2C(=O)c2sc(C)nc2C)c1 [ESC1002427] | –
> 20 µM | 6% | – | – | – | significantly less active | COc1cccc(-c2ccccc2[C@H]2CCCN2C(=O)c2snnc2C)c1 [ESC1002429] | –
> 20 µM | 18.4% | – | – | – | – | CCN(C(=O)C1CCOCC1)c1cccc(N(C)Cc2cnc[nH]2)c1 [S2−T6, N-ethyl-N-[3-[1H-imidazol-5-ylmethyl(methyl)amino]phenyl]tetrahydropyran-4-carboxamide] | –
> 20 µM | 14% | – | – | – | – | Cc1ccsc1C(=O)N1CCC[C@H]1c1ccccc1-c1ccccc1Cl (single isomer, unassigned) [ESC1002766] | –
> 20 µM | 4% | – | – | – | – | CC(C)CN(C(=O)c1ccccc1F)c1cccc(-n2cnnc2)c1 [ESC1002764] | –
0.575 µM | 93% | 1.1 | 95 | −8 | – | COc1ccc(-c2ccccc2[C@@H]2CCCN2C(=O)c2sccc2Cl)cc1OC (racemic) [ESC1002663] | –

— patent US20260132123A1, “ABAD INHIBITOR COMPOUNDS” (UNIVERSITY COURT OF THE UNIVERSITY OF ST ANDREWS, priority 2021, published 2026)
